Holding throughout (assay type): functional, cell-based
Assay [1] relates to PC-12. Nature of the assay: Inhibition of PC12 cell differentiation at 100 ug/ml (No effect). The settings on record: Rattus norvegicus.
For assay [2], the target named is High affinity nerve growth factor receptor (Rattus norvegicus) (UniProt P35739). The assay can be described thus: Inhibition of NGF receptor-induced differentiation of PC12 cells at 100 ug/ml (No effect). The settings on record: PC-12.
For assay [3] the target is unchanged. Nature of the assay: Induction of NGF receptor-induced differentiation of PC12 cells at 1-100 ug/ml. Particulars: PC-12.
For assay [4], the system named is PC-12. The assay can be described thus: Induction of PC12 cell differentiation at 100 ug/ml. Particulars: Rattus norvegicus.
The target of assay [5] is High affinity nerve growth factor receptor (Rattus norvegicus) (UniProt P35739). Nature of the assay: Induction of NGF receptor-induced differentiation of PC12 cells at 100 and 10 ug/ml. Particulars: PC-12.

The source made the active and inactive calls. No cut-off for these calls is given here.

High affinity nerve growth factor receptor (Rattus norvegicus), sequence (P35739 whole entry): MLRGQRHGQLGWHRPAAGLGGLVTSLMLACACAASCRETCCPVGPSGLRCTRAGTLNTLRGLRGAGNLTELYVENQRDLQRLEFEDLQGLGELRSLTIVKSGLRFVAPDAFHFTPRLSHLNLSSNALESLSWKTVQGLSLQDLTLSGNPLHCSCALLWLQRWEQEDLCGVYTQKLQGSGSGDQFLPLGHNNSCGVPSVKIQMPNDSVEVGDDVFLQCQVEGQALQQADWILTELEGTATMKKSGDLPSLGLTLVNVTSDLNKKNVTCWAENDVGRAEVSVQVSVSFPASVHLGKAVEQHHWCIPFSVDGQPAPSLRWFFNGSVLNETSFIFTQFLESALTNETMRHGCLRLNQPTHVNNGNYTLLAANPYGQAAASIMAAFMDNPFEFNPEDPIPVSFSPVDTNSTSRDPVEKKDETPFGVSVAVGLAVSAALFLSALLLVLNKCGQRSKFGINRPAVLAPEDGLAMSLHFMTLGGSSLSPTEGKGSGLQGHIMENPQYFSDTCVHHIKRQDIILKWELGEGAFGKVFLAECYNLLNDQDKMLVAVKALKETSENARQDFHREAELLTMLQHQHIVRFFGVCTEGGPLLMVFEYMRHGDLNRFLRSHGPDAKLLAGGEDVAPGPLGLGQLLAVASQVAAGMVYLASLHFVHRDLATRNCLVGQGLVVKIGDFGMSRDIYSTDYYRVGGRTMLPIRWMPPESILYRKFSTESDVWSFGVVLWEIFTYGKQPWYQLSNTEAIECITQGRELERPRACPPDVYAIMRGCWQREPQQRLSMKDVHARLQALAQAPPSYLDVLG

For `NC(=O)c1csc([C@@H]2O[C@H](CO)C2CO)n1` (stereo not given in full), the NA result in assay [1] and in assay [2] was “inactive” in each case.

With `NC(=O)c1csc([C@@H]2O[C@H](CO)C(O)[C@H]2O)n1` (single isomer, unassigned), the outcome in assay [3] was Active.

With `NC(=O)c1csc([C@@H]2C[C@H](CO)C2CO)n1` (stereo not given in full), the Induction result in assay [4] and in assay [5] was “Active” throughout.

The values above are taken from ChEMBL document CHEMBL1129140, “Synthesis of C-oxetanosyl-thiazole and its carbocyclic analog nucleosides as potential chemotherapeutic agents” (Bioorg Med Chem Lett, 1996).
